Drawing on patent US20240360148A1 (SUVALENT THERAPEUTICS, INC., priority 2021, published 2024), this text covers IC50 for 28 molecules.

Some results are limits rather than exact numbers.

The subject of assay [1] is sumoylation levels (SUMO 2/3 conjugates) in HCT-116 cells. As to the kind of experiment: HCT-116 4 Hour Cell Assay (Western, SUMO 2/3 conjugates). As to conditions: Homo sapiens, HCT-116, 4 h, 4 h treatment, Anti-Sumo 2-3 immunoblot, read-out: HCT-116 Western 4 h IC50 (μM) Ave. The format is cell-based. As for the experimental part:
This protocol describes the procedures used to assess the effects of compounds of interest on sumoylation levels. Immunoblot of SUMO 2/3 conjugates are performed and IC50 curves are generated upon quantification of sumoylations bands. HCT-116 cells are seeded in a 12 well plate (500,000 cells/well). The following day the cells are treated with compounds of interest (resuspended in DMSO) for 4 hours (11 concentrations with a three-fold dilution; starting concentration 25 μM) Following 4 hours of incubation the cells are washed with ice cold PBS 1×and protein extraction is performed with RIPA buffer supplemented with phosphatases and proteases inhibitors, 25 mM of NEM and 50 units/mL of Benzonase. Samples undergo centrifugation at 13,000 RPM, 4° C., for 10 minutes and the supernatant is collected. Protein quantification is performed using BCA. Non-Reducing Laemmli Buffer is added to the samples. Samples are heated at 75° C. for 10 minutes, and are centrifuged for 3 minutes at 9000 RPM Nupage 4-12% Bis Tris gels and 1× MOPS buffer (Fisher Scientific)+1× NuPAGE Antioxidant (Invitrogen) are used to perform the SDS-PAGE gel electrophoresis (20 to 40 μg of proteins are loaded in the gels). Proteins are then transferred to PVDF membranes and the level of total proteins are measured by staining with Revert Total Protein Stain and the fluorescent bands are acquired using the LI-COR FC (700 nm for 1 min) Membranes are blocked for 5 minutes with Bio-Rad Blocking Buffer and are subsequently incubated over night at 4° C. with Anti-Sumo 2-3 mAb (M BL #M114-3, 1:1000 in Bio-Rad Blocking Buffer, 0.2% Tween 20) Membranes are washed with 1×TBS-T (3 times for 5 minutes) and sumoylation is detected using Li-cor IRDye 800CW Goat anti-Mouse IgG secondary antibody (1:10,000 dilution) upon 1 hour of incubation in blocking buffer with 0.2% Tween 20 and 0.01% SDS. After the incubation, the membranes are washed with 1×TBS-T (3 times for 5 minutes). To visualize the fluorescent bands the membranes are scanned with LI-COR FC (700 nm for 1 min and […] for 2 mins). Sumoylation levels are quantified upon normalization with total protein levels, using the LI-COR Image Studio Lite 5.2 Software.
(Immunoblotting shows a protein as a band on a membrane.)

The target in a further assay is SAE1 (Homo sapiens (Human), UniProt Q9UBE0+Q9UBT2). The experiment in a line: SAE High Throughput Biochemical Assay (HTRF), 15 min preincubation. As to conditions: read-out: 15 min preincubation HTRF IC50 (μM) Ave, SAE1 12.5 nM, ATP 100 μM. An outline of the steps: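 HTRF detection of SUMO transfer from SUMO-GST to UBC9-His (40 nM each) by SAE1 at 12.5 nM used 100 μM ATP in pH 7.5 HEPES buffer with 10 mM MgCl2 and 0.1% BSA. Enzyme and compound were preincubated 15 min at RT and the reaction ran 45 min, with readings after 2 h and overnight.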
Chain of SAE1 (Q9UBE0 whole entry): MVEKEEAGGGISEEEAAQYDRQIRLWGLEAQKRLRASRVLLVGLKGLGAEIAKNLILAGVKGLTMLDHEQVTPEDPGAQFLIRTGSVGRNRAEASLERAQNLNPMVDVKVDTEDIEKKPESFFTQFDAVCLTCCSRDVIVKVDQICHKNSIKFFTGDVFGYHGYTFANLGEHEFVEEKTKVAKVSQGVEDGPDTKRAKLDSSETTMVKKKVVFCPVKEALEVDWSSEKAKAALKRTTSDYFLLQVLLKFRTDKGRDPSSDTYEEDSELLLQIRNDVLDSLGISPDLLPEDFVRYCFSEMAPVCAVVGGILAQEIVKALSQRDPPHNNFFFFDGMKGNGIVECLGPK
Chain of SAE1 (Q9UBT2 whole entry): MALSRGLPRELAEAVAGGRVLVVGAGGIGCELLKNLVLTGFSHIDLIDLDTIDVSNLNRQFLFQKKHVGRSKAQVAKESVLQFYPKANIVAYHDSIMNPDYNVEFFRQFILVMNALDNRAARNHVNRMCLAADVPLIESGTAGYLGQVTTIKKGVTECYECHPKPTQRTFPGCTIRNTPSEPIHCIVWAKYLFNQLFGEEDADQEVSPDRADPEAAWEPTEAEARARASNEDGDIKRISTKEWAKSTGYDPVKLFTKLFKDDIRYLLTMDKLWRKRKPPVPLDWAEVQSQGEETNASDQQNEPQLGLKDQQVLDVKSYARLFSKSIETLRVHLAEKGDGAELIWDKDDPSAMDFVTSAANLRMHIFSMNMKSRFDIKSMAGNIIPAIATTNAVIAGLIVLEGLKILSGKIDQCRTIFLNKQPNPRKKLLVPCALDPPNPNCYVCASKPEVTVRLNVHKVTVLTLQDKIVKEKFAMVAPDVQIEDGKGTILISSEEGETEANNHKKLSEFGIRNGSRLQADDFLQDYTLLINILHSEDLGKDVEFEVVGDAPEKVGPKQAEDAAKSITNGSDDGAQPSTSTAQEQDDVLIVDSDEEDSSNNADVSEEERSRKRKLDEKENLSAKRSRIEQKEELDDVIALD

The IC50 is the concentration at which inhibition is half-maximal. Take `CCn1cc(-c2c(F)cccc2[C@@H]2CN(C(=O)/C=C/C3CC[C@@H](C)N3)Cc3sc(C#N)cc32)c(C(F)(F)F)n1` (stereo in doubt) [Example 93, (S)-4-(2-(1-ethyl-3-(trifluoromethyl)-1H pyrazol-4-yl)-3-fluorophenyl)-6-((E)-3-((2S,5R)-5-methylpyrrolidin-2-yl)acryloyl)-4,5,6,7-tetrahydrothieno[2,3-c]pyridine-2-carbonitrile]: the half-inhibitory concentration (IC50) worked out at 0.145 µM in assay [1] and 0.76 µM at SAE1.
On the same counts, the results for `Cc1c(C#N)sc2c1[C@H](c1cccc(F)c1-c1cn(C)nc1C(F)(F)F)CN(C(=O)/C=C/CN(C)C)C2` [Compound 220] are 0.0573 µM and 0.067 µM.
As to `Cc1c(C#N)sc2c1[C@H](c1cccc(F)c1-c1c[nH]nc1C(F)(F)F)CN(C(=O)/C=C/CN(C)C)C2` [Compound 221], the IC50 was 0.134 µM in assay [1] and 0.347 µM at SAE1.
Take `CCn1cc(-c2c(F)cccc2[C@@H]2CN(C(=O)/C=C/CN)Cc3sc(C#N)c(C)c32)c(C(F)(F)F)n1` [Compound 224]: the concentration for half-maximal inhibition (IC50) in assay [1] turned out to be 0.106 µM; on SAE1, 0.172 µM.
On the same counts, the results for `C=CC(=O)N1Cc2sc(C#N)cc2C(c2ccc(NC(C)=O)cc2-c2cn(CC)nc2C(F)(F)F)C1` (stereo not shown) [Compound 230] are 5.39 µM and 1.1 µM.
For `C=CC(=O)N1Cc2sc(C#N)c(C)c2C(c2ccccc2-c2cn(CC)nc2C(F)(F)F)C1` (stereo not shown) [Compound 231], the concentration for half-maximal inhibition (IC50) in assay [1] worked out at 1 µM; at SAE1 it was 0.16 µM.
On the same counts, the results for `CCn1cc(-c2ccccc2C2CN(C(=O)/C=C/CN(C)C)Cc3sc(C#N)c(C)c32)c(C(F)(F)F)n1` (stereo not shown) [Compound 232] are 0.402 µM and 1.36 µM.
On the same counts, the results for `CCn1cc(-c2ccccc2[C@H]2c3cc(C#N)sc3CN(C(=O)/C=C/CN(C)C)[C@@H]2C)c(C(F)(F)F)n1` [Compound 233] are 0.914 µM and 4.82 µM.
On the same counts, the results for `CCn1cc(-c2c(F)cccc2C2CN(C(=O)/C=C/CN(C)C)Cc3sc(C#N)cc32)c(C(F)(F)F)n1` (stereo not shown) [Compound 234] are 0.339 µM and 2.23 µM.
In the case of `C=CC(=O)N1Cc2sc(C#N)cc2C(c2cccc(F)c2-c2cn(CC)nc2C(F)(F)F)C1` (stereo not shown) [Compound 236], the IC50 was found to be 0.356 µM in assay [1] and 0.24 µM on SAE1.
On the same counts, the results for `CCn1cc(C2=C([C@@H]3CN(C(=O)/C=C/CN(C)C)Cc4sc(C#N)cc43)CCCC2)c(C(F)(F)F)n1` [Compound 237] are 0.897 µM and 2.64 µM.
The like results for `CCn1cc(-c2c(F)cc(F)cc2[C@@H]2CN(C(=O)/C=C/CN(C)C)Cc3sc(C#N)cc32)c(C(F)(F)F)n1` [Compound 238] were, in that order, 0.844 µM and 1.79 µM.
Take `CCn1cc(-c2ccccc2[C@@H]2CN(C(=O)/C=C/CN(C)C)Cc3sc(C#N)c(C)c32)c(C(F)(F)F)n1` [Compound 239]: the IC50 in assay [1] is 0.187 µM; on SAE1 it was 1.12 µM.
Consider `CCn1cc(-c2c([C@@H]3CN(C(=O)/C=C/CN(C)C)Cc4sc(C#N)cc43)ccc(O)c2F)c(C(F)(F)F)n1` [Compound 240], for which the IC50 in assay [1] was 0.187 µM; on SAE1, 0.81 µM.
On the same counts, the results for `CCn1cc(-c2c(C(F)F)cccc2C2CN(C(=O)/C=C/CN(C)C)Cc3sc(C#N)cc32)c(C(F)(F)F)n1` (stereo not shown) [Compound 241] are 0.445 µM and 5.52 µM.
On the same counts, the results for `CCn1cc(-c2c(C)cccc2[C@@H]2CN(C(=O)/C=C/CN(C)C)Cc3sc(C#N)cc32)c(C(F)(F)F)n1` [Compound 242] are 1.29 µM and 2.32 µM.
On the same counts, the results for `CCn1cc(-c2c(Cl)cccc2[C@@H]2CN(C(=O)/C=C/CN(C)C)Cc3sc(C#N)cc32)c(C(F)(F)F)n1` [Compound 243] are 0.502 µM and 1.17 µM.
In the case of `CCn1cc(-c2ccccc2[C@@H]2CN(C(=O)/C=C/CNC(C)(C)CO)Cc3sc(C#N)cc32)c(C(F)(F)F)n1` [Compound 244], the IC50 in assay [1] turned out to be 1.97 µM; at SAE1 it was 2.88 µM.
With `CCn1cc(-c2ccccc2[C@@H]2CN(C(=O)/C=C/C(F)F)Cc3sc(C#N)cc32)c(C(F)(F)F)n1` [Example 21, (S, E)-6-(4,4-difluorobut-2-enoyl)-4-(2-(1-ethyl-3-(trifluoromethyl)-1H-pyrazol-4-yl)phenyl)-4,5,6,7-tetrahydrothieno[2,3-c]pyridine-2-carbonitrile], the IC50 in assay [1] was found to be 0.12 µM.
Regarding `CCn1cc(-c2cccc(O)c2C2CN(C(=O)/C=C/CN(C)C)Cc3sc(C#N)cc32)c(C(F)(F)F)n1` (stereo not shown) [Example 204, (E)-6-(4-(Dimethylamino)but-2-enoyl)-4-(2-(1-ethyl-3-(trifluoromethyl)-1 H-pyrazol-4-yl)-6-hydroxyphenyl)-4,5,6,7-tetrahydrothieno[2,3-c]pyridine-2-carbonitrile], on SAE1, the IC50 was over 25 µM.
The same measure, in the same setting: the result for `CCn1cc(-c2ccc(O)cc2C2CN(C(=O)/C=C/CN(C)C)Cc3sc(C#N)cc32)c(C(F)(F)F)n1` (stereo not shown) [Example 205, (E)-6-(4-(Dimethylamino)but-2-enoyl)-4-(2-(1-ethyl-3-(trifluoromethyl)-1 H-pyrazol-4-yl)-5-hydroxyphenyl)-4,5,6,7-tetrahydrothieno[2,3-c]pyridine-2-carbonitrile] reads over 25 µM.
In the case of `CCn1cc(-c2sccc2C2CN(C(=O)/C=C/CN(C)C)Cc3sc(C#N)cc32)c(C(F)(F)F)n1` (stereo not shown) [Example 207, (E)-6-(4-(Dimethylamino)but-2-enoyl)-4-(2-(1-ethyl-3-(trifluoromethyl)-1H pyrazol-4-yl)thiophen-3-yl)-4,5,6,7-tetrahydrothieno[2,3-c]pyridine-2-carbonitrile], on SAE1, the IC50 was over 25 µM.
For the molecule `CCn1cc(-c2cc(C)ccc2C2CN(C(=O)/C=C/CN(C)C)Cc3sc(C#N)cc32)c(C(F)(F)F)n1` (stereo not shown) [Example 210, (E)-6-(4-(Dimethylamino)but-2-enoyl)-4-(2-(1-ethyl-3-(trifluoromethyl)-1 H pyrazol-4-yl)-4-methylphenyl)-4,5,6,7-tetrahydrothieno[2,3-c]pyridine-2-carbonitrile], at SAE1, the IC50 stood at 19.7 µM.
The same measure, in the same setting: with `CCn1cc(-c2cc(F)ccc2C2CN(C(=O)/C=C/CN(C)C)Cc3sc(C#N)cc32)c(C(F)(F)F)n1` (stereo not shown) [Example 211, (E)-6-(4-(Dimethylamino)but-2-enoyl)-4-(2-(1-ethyl-3-(trifluoromethyl)-1 H-pyrazol-4 yl)-4-fluorophenyl)-4,5,6,7-tetrahydrothieno[2,3-c]pyridine-2-carbonitrile] the figure was 20.2 µM; with `CCn1cc(-c2cc(Cl)ccc2C2CN(C(=O)/C=C/CN(C)C)Cc3sc(C#N)cc32)c(C(F)(F)F)n1` (stereo not shown) [Example 212, (E)-4-(4-Chloro-2-(1-ethyl-3-(trifluoromethyl)-1 H-pyrazol-4-yl)phenyl)-6-(4-(dimethylamino)but-2-enoyl)-4,5,6,7-tetrahydrothieno[2,3-c]pyridine-2-carbonitrile], 11.7 µM; with `CCn1cc(-c2ccccc2C2CN(C(=O)/C=C/CN(C)C)Cc3sc(C#N)c(F)c32)c(C(F)(F)F)n1` (stereo not shown) [Example 213, (E)-6-(4-(dimethylamino)but-2-enoyl)-4-(2-(1-ethyl-3-(trifluoromethyl)-1 H pyrazol-4-yl)phenyl)-3-fluoro-4,5,6,7-tetrahydrothieno[2,3-c]pyridine-2-carbonitrile], 8.81 µM.
Same read-out and setting: the result for `CCn1cc(-c2c(F)cccc2[C@@H]2CN(C(=O)/C=C/[C@@H](C)NC)Cc3sc(C#N)c(C)c32)c(C(F)(F)F)n1` [Example 218, (S)-4-(2-(1-ethyl-3-(trifluoromethyl)-1 H-pyrazol-4-yl)-3-fluorophenyl)-3-methyl-6-((R, E)-4-(methylamino)pent-2-enoyl)-4,5,6,7-tetrahydrothieno[2,3-c]pyridine-2-carbonitrile] reads 0.81 µM; that for `CN[C@@H](C)/C=C/C(=O)N1Cc2sc(C#N)c(C)c2[C@H](c2cccc(F)c2-c2cn(C)nc2C(F)(F)F)C1` [Example 219, (S)-4-(3-fluoro-2-(1-methyl-3-(trifluoromethyl)-1 H-pyrazol-4-yl)phenyl)-3-methyl-6-((S, E)-4-(methylamino)pent-2-enoyl)-4,5,6,7-tetrahydrothieno[2,3-c]pyridine-2-carbonitrile], 1.01 µM.
